In US20220202957A1, “LONG-LASTING ANALGESIA VIA TARGETED IN VIVO EPIGENETIC REPRESSION” (The Regents of the University of California, priority 2019, published 2022):

How the values were obtained:
NaV1.7 = test: In vivo Nav1.7 repression in mice DRG (L4-L6) by qPCR after intrathecal AAV9; parameters: species or system mouse; conditions: gabapentin benchmarking experiment; 24 h after carrageenan; vs AAV9-mCherry
Method: (§1) Intrathecal AAV Injections. Anesthesia was induced with 2.5% isoflurane delivered in equal parts O2 and room air in a closed chamber until a loss of the righting reflex was observed. The lower back of mice was shaven and swabbed with 70% ethanol. Mice were then intrathecally (i.t.) injected using a Hamilton syringe and 30G needle as previously described 104 between vertebrae L4 and L5 with 5 μL of AAV for a total of 1E+12 vg/mouse. A tail flick was considered indicative of appropriate needle placement. Following injection, all mice resumed motor activity consistent with that observed prior to i.t. injection.
Tissue collection. […]
Gene Expression Analysis and qPCR. […] Relative mRNA expression was normalized to GAPDH levels and fold change was calculated using the comparative CT (AACT) method and normalized to GAPDH. Mean fold change and SD were calculated using Microsoft Excel.
Having established in vitro Nav1.7 repression, testing the effectiveness of the best ZFP-KRAB and KRAB-dCas9 constructs from the in vitro screens (Zinc-Finger-4-KRAB and KRAB-dCas9-dual-gRNA) in a carrageenan-induced model of inflammatory pain was performed. […] After 21 days, thermal pain sensitivity was measured to establish a baseline response threshold. […]

[1] = system: carrageenan-induced model of inflammatory pain; test: Carrageenan-induced inflammatory pain model, thermal paw withdrawal latency (Hargreaves test); type: in vivo, mouse; conditions: gabapentin 100 mg/kg i.p.
Method: Animals Experiments. All animal procedures were performed in accordance with protocols approved by the Institutional Animal Care and Use Committee (IACUC) of the University of California, San Diego. All mice were acquired from Jackson Laboratory. Two-month-old adult male C57BL/6 mice (25-30 g) were housed with food and water provided ad libitum, under a 12 h light/dark cycle with up to 5 mice per cage. All behavioral tests were performed during the light cycle period.
as §1, with “Following injection, all mice resumed motor activity consistent with that observed prior to i.t. injection.” left out
Pain Models. […] Paw thickness was measured with a caliper before and 4 h after carrageenan/saline injections as an index of edema/inflammation. […]
Thermal Withdrawal Latency (Hargreaves Test): To determine the acute nociceptive thermal threshold, the Hargreaves' test was conducted using a plantar test device (Ugo Basile, Italy) 108. […] Paw withdrawal latencies were measured with a cutoff time of 30 seconds. […]

[2] = system: paclitaxel-induced neuropathy; test: Paclitaxel-induced neuropathic pain model, tactile allodynia (von Frey filaments); type: in vivo, mouse; conditions: 21 days after i.t. injection, 24 h after last paclitaxel (4 x 8 mg/kg i.p.); gabapentin 100 mg/kg i.p.
Method: as §1
Paclitaxel-induced neuropathy: Paclitaxel (Tocris Biosciences, 1097) was dissolved in a mixture of 1:1:18 [1 volume ethanol/1 volume Cremophor EL (Millipore, 238470)/18 volumes of sterilized 0.9% (W/V) NaCl solution]. […]
Tactile allodynia: For the BzATP pain model, tactile thresholds (allodynia) were assessed 30 minutes, 1, 2, 3, 6, 24 hours after the BzATP injection. For the Paclitaxel model, tactile thresholds (allodynia) were assessed 24 hours and 29 days after the last Paclitaxel injection. […] The 50% probability of withdrawal threshold was assessed using von Frey filaments (Seemes Weinstein von Frey anesthesiometer; Stoelting Co., Wood Dale, Ill., USA) ranging from 2.44 to 4.31 (0.04-2.00 g) in an up-down method, as previously described 107. […]

Nav1.7 transcript = test: In vitro Nav1.7 repression by qPCR in transfected Neuro2a cells; type: cell-based, mouse; conditions: qPCR relative to GAPDH, KRAB-dCas9 constructs compared to the non-targeting gRNA control
Method: Mammalian Cell Culture. Neuro2a cells were grown in EMEM supplemented with 10% fetal bovine serum (FBS) and 1% Antibiotic-Antimycotic (Thermo Fisher Scientific) in an incubator at 37° C. and 5% CO2 atmosphere.
Lipid-Mediated Cell Transfections. One day prior to transfection, Neuro2a cells were seeded in a 24-well plate at a cell density of 1 or 2E+5 cells per well. […] of each plasmid was added to 25 μL of Opti-MEM medium, followed by addition of 25 μL of Opti-MEM containing 2 μL of Lipofectamine 2000. The mixture was incubated at room temperature for 15 min. The entire solution was then added to the cells in a 24-well plate and mixed by gently swirling the plate. Media was changed after 24 h, and the plate was incubated at 37° C. for 72 h in a 5% CO2 incubator. Cells were harvested, spun down, and frozen at […].
Gene Expression Analysis and qPCR. RNA from Neuro2a cells was extracted using Rneasy Kit (QIAGEN; 74104) and from DRG using Rneasy Micro Kit (QIAGEN; 74004). cDNA was synthesized from RNA using Protoscript II Reverse Transcriptase Kit (NEB; E6560L). […] Relative mRNA expression was normalized to GAPDH levels and fold change was calculated using the comparative CT (AACT) method and normalized to GAPDH. Mean fold change and SD were calculated using Microsoft Excel. […]

Row | Molecule | repression of Nav1.7 in DRG (L4-L6) by qPCR, significance (NaV1.7) | PWL of carrageenan-injected paws at each time point vs AAV9-mCherry control (two-way ANOVA) ([1]; 30 min, 1, 2, 4, 24 h after carrageenan, AAV9 1E+12 vg/mouse i.t.) | PWL (AUC of thermal hyperalgesia) in carrageenan-injected paws vs AAV9-mCherry control ([1]; gabapentin benchmarking experiment, day 21) | 50% tactile withdrawal threshold / tactile allodynia (von Frey) [2] | repression of the Nav1.7 transcript (Nav1.7 transcript)
1 | NCC1(CC(=O)O)CCCCC1 [gabapentin] | significant repression of Nav1.7 | at the 30 minute, 1 hour, and four hour time points, but not the 24 hour time point | significant increase in PWL | increased withdrawal thresholds | –
2 | gRNA-2: guide RNA spacer GCAGGTGCACTCACCGGGT (SEQ ID NO: 130), used with KRAB-dCas9 (listed as DNA, chemistry not given here) | – | – | – | – | 56%
